The record followed here is US20250376461A1, “INDAZOLE DERIVATIVES FOR TREATING TRPM3-MEDIATED DISORDERS” (Katholieke Universiteit Leuven, priority 2022, published 2025).

The IC50 is the point on the concentration scale where inhibition reaches its midpoint. A lower IC50 goes with greater potency in that assay.

The target in the experiment is T1, mouse TRPM3α2 (mTRPM3) ion channel (Mus musculus, UniProt J9SQF3).
T1 construct: expressed in transfected cells; host or cells: flip-in HEK293
T1 sequence (J9SQF3 1-1709 isoform J9SQF3-12): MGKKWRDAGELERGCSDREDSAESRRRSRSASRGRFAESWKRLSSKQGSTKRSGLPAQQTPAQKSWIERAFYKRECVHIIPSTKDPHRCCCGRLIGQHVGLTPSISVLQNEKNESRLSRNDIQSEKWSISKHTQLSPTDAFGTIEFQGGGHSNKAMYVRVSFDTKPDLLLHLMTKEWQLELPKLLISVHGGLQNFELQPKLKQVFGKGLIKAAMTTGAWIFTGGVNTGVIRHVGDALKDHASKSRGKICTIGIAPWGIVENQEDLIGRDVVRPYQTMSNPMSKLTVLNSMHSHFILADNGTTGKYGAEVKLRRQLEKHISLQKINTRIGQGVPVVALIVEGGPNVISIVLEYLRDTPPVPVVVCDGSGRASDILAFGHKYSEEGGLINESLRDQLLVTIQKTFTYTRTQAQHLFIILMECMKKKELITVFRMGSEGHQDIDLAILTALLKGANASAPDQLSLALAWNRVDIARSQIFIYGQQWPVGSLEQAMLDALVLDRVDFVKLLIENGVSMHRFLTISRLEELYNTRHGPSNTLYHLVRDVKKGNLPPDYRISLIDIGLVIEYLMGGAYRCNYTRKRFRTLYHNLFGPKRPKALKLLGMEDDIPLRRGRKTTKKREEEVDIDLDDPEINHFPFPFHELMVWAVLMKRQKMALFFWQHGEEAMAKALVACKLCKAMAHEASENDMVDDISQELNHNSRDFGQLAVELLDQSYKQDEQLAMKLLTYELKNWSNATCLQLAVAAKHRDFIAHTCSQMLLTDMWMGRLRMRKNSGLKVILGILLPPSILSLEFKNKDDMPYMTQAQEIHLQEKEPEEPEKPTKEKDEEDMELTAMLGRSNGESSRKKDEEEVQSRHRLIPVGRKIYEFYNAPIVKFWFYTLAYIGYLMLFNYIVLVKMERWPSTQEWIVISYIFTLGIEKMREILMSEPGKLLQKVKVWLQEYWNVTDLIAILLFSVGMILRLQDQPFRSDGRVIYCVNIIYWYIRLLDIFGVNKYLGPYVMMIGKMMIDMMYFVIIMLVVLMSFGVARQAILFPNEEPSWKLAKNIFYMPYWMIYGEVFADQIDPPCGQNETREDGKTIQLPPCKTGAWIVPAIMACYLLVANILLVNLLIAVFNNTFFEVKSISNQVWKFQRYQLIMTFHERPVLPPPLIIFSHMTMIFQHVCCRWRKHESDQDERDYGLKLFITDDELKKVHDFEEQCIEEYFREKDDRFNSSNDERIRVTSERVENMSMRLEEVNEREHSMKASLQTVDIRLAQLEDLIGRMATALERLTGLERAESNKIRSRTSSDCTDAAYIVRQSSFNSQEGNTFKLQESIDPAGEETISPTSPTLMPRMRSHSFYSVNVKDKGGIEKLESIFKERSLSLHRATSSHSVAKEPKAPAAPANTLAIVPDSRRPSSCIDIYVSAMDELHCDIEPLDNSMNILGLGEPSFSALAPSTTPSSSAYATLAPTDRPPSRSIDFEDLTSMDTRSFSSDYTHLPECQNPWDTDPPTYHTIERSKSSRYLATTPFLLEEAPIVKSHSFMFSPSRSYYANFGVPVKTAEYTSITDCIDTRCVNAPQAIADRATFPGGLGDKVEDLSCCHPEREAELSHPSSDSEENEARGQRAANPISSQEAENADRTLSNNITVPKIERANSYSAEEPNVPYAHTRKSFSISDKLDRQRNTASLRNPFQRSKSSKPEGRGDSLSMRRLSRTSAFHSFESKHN
Briefly: TRPM3 ion channel driven Ca2+ uptake, Fluo-4 AM assay, mTRPM3alpha2 overexpressing flip-in HEK293 cells stimulated with pregnenolone sulfate (50 μM). It counts as cell-based. The note with it: mTRPM3 overexpressing HEK293 cells stimulated with pregnenolone sulfate (50 μM), activity ranges A, B, C. The gist of the method:
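Ca2+ influx via mouse TRPM3α2 was opened with pregnenolone sulfate (50 μM) and tracked by Fluo-4 AM fluorescence at 485/535 nm, read directly after adding about 2000 stably transfected HEK293 cells per well to compound. IC50 values come from percent inhibition scaled to vehicle and positive-control inhibitor signals.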
Compound `Cc1ncsc1COc1ccc2nn(C)c(C(=O)NCCN3CCOC3=O)c2c1` [Cpd 053, 2-methyl-5-[(4-methyl-1,3-thiazol-5-yl)methoxy]-N-[2-(2-oxo-1,3-oxazolidin-3-yl)ethyl]-2H-indazole-3-carboxamide] registered a half-inhibitory concentration (IC50) greater than 20 µM. Turning to `Cc1ncc(COc2ccc3nn(C)c(C(=O)NC4CCN(C)CC4)c3c2)s1` [Cpd 111, 2-methyl-5-[(2-methyl-1,3-thiazol-5-yl)methoxy]-N-(1-methylpiperidin-4-yl)-2H-indazole-3-carboxamide], the IC50 was greater than 20 µM. `CC(=O)C(C)(CO)NC(=O)c1c2cc(OCc3ccccn3)ccc2nn1C` (single isomer, unassigned) [Cpd 232 - En2] yielded a half-maximal inhibitory concentration (IC50) of less than 1 µM.
